Measured values taken from US20090082337A1, “Compositions Comprising Quinolone and Methods for Treating or Controlling Infections” (priority 2007, published 2009).
Converted amounts (≈) assume the structure as drawn.

The compounds below were run on Ofloxacin-resistant Enterobacteriaceae (assay: organism not typed).
Assay type: cell-based

Compound | MIC90 [µg/mL]
CC1COc2c(N3CCN(C)CC3)c(F)cc3c(=O)c(C(=O)O)cn1c23 (stereo not drawn) [Ofloxacin, ofloxacin] | 64 (≈ 177 µM)
CCn1cc(C(=O)O)c(=O)c2cc(F)c(N3CCNCC3)cc21 [Norfloxacin] | 128 (≈ 401 µM)
N[C@@H]1CCCCN(c2c(F)cc3c(=O)c(C(=O)O)cn(C4CC4)c3c2Cl)C1 [Compound Having Formula IV] | 16
